“Also recorded” adds a separate entry of the source. Like-named read-outs stand apart in the source and are kept apart here.
Key:
[1] = tested on: PAF induced platelet aggregation (human platelets); test: PAF induced platelet aggregation assay; type: cell-based; conditions: for PAF antagonist activity (in words): in vitro
Description: In vitro experiments have been conducted to determine the PAF and 5-lipoxygenase inhibitory activity of a variety of synthesized, neolignan derivative compounds. In particular, the novel compounds are either 2,4-diaryl-1,3-dithiolanes or futoenone derivatives. PAF antagonist activity was determined according to the method of Shen et al., in Methods of Ezymology, Vol. 187, 447-449 (1990), and that article is herein incorporated by reference. The 5-lipoxygenase inhibitory activity was determined according to an assay discussed below.
The following outlines a platelet aggregation assay procedure. Blood is obtained from human volunteers who have not ingested aspirin or steroid drugs for ten days and is stored with a 3.8% trisodium citrate anticoagulant. Heparin is not used as the anticoagulant since it interferes with platelet aggregation. Citrated blood is centrifuged at 220 g for 10 min. at room temperature to obtain platelet-rich plasma (PRP). The platelet count is determined and is adjusted to […]. Platelet-poor plasma (PPP) is prepared by centrifuging PRP at 1000 g for 20 min. to pelletize the platelets. PPP is used to calibrate the aggregometer. Washed platelet suspension (WPS) is prepared from PRP by underlayering the latter with Ficoll-Paque (9:2, v/v) and centrifuging at 750 g for 15 min. at room temperature. The platelets form a band between the plasma and the separation medium and are carefully collected and suspended in Tyrode's solution (in mM: NaCl, 137; KCl, 2.7; NAHCO3, 11.9; NaH2 -PO4, 0.42; MgCl2, 1.0; CaCl2, 1.0; HEPES, 5.0; and dextrose, 1 g/liter, with 0.25% BSA, w/v, pH 7.4). Prostacyclin (PGI2) (1 ng/ml) can be added to the suspension to prevent platelet activation; however, it should be understood that the inhibitory activity of PGI2 disappears completely 10 min. from the time of addition at room temperature. The suspension is then spun at 1000 g for 10 min. and the pellet is resuspended in Tyrode's buffer for platelet aggregation. The suspensions are maintained at 37° C. and stirred constantly at 1000 revolutions per min (rpm). A known amount of PAF, such as 0.11 μM PAF, is added to the suspension three to five minutes after the addition of the potential PAF antagonists (the synthesized compounds). […] To obtain the IC50 value, varying concentrations of a potential antagonist need to be added to the test suspensions with the percentage inhibition being determined for each concentration of the antagonist, and the IC50 value is obtained from a plot of the percentage inhibition versus concentration of the antagonist.

[2] = tested on: PAF receptor; conditions: literature report; cited from earlier work
[3] = PAF induced platelet aggregation

SMILES	PAF antagonist activity (in words) [1, 3]	PAF receptor antagonism (in words) [2]	further results
COc1cc(C2CSC(c3cc(OC)c(OC)c(OC)c3)O2)cc(OC)c1OC (stereo not shown) [oxathiolane (F')]	much weaker antagonist of PAF-induced platelet aggregation than the corresponding dithiolane compound		
COc1cc(C2CCC(c3cc(OC)c(OC)c(OC)c3)O2)cc(OC)c1OC [L-652,731]		potent PAF receptor antagonists	
CCCOc1c(OC)cc(C2CCC(c3cc(OC)c(OC)c(OC)c3)O2)cc1S(C)(=O)=O [L-659,989]		potent PAF receptor antagonists	
C=CCC1=C[C@@]2(OC)C(=CC1=O)O[C@H](c1ccc(OC)c(OC)c1)[C@H]2C [kadsurenone]		potent, specific and competitive inhibitor of PAF at the receptor level	
COC1=C[C@]23C[C@H](C[C@H](c4ccc5c(c4)OCO5)[C@H]2C)OC3=CC1=O [futoenone]	posesses PAF antagonist activity; also recorded: potent PAF antagonist activity		IC50 ([1]; human platelet assay in PRP, 0.1 μM PAF, read-out: IC50 value for platelet aggregation induced by 0.1 μM PAF): ~13.6 µM
COc1cc(C2CSC(c3cc(OC)c(OC)c(OC)c3)S2)cc(OC)c1OC (stereo not drawn) [compound 1, Cis and trans-2,4-bis-(3,4,5-trimethoxyphenyl)-1,3-dithiolane]			IC50 ([1]; Homo sapiens, PAF induced platelet aggregation, read-out: IC50 value, PAF-induced platelet aggregation): < 1 µM
